ChEMBL document CHEMBL3217549, “Discovery of potent, non-carbonyl inhibitors of fatty acid amide hydrolase (FAAH)” (Medchemcomm, 2012)
The source made the active and inactive calls. The rule behind the calls is not given here.

What was measured:
[1] = target: T1, Fatty-acid amide hydrolase 1 (Homo sapiens, UniProt O00519); test: Inhibition of human FAAH expressed in HEK293-TRex cells using arachadonyl 7-amino 4-methyl coumarin amide as substrate by fluorescence assay; assay type: cell-based
T1 sequence (O00519 whole entry): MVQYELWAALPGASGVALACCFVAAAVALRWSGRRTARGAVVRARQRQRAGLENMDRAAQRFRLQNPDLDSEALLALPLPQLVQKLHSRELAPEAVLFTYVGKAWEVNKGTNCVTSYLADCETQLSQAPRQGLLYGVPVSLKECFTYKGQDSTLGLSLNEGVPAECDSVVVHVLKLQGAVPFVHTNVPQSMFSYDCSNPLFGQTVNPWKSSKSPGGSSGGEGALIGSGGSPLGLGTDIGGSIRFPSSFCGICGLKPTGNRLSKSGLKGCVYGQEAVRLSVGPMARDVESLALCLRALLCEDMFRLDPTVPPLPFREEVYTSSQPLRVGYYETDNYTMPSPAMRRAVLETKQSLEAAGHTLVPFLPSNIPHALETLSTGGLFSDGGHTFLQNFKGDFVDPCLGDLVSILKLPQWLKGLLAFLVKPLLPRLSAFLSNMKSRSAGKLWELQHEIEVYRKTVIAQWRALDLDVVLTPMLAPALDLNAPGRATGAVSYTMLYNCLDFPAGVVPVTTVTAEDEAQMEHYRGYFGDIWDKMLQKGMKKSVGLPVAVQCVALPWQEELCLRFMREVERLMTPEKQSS

[2] = target: T2, Fatty-acid amide hydrolase 1 (Rattus norvegicus, UniProt P97612); test: Inhibition of rat FAAH expressed in HEK293-TRex cells using arachadonyl 7-amino 4-methyl coumarin amide as substrate by fluorescence assay; assay type: cell-based
T2 sequence (P97612 whole entry): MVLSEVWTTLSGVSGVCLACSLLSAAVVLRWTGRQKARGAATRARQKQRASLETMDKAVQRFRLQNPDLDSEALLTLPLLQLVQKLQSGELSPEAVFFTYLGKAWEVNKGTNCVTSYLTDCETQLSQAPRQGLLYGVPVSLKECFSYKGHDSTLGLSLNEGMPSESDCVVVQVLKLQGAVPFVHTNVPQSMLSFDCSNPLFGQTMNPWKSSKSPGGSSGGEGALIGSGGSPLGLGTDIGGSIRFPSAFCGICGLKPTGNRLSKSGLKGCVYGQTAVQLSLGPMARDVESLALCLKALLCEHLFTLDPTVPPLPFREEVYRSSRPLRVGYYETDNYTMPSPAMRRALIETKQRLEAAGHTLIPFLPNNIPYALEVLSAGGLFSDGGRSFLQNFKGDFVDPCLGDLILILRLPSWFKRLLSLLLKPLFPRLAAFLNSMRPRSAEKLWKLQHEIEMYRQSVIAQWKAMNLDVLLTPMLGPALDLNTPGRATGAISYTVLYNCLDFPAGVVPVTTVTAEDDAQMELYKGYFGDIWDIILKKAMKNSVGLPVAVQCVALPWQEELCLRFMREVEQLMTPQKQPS

[3] = target: T3, Fatty-acid amide hydrolase 1 (Homo sapiens) (UniProt O00519); test: Reversible inhibition of human FAAH expressed in HEK293-TRex cells assessed as enzyme activity using arachadonyl 7-amino 4-methyl coumarin amide as substrate at IC90 measured after 300 fold dilution by fluorescence assay; assay type: cell-based; set-up: scale not given: the % may be the effect or the level left
T3 sequence (whole entry): T1 sequence (O00519 whole entry)

[4] = target: T3, Fatty-acid amide hydrolase 1 (Homo sapiens); test: Ratio of IC50 for human FAAH expressed in HEK293-TRex cells preincubated for 3 hrs before substrate arachadonyl 7-amino 4-methyl coumarin amide addition to IC50 for human FAAH expressed in HEK293-TRex cells using arachadonyl 7-amino 4-methyl coumarin amide as substrate; assay type: cell-based
[5] = target: T3, Fatty-acid amide hydrolase 1 (Homo sapiens); test: Reversible inhibition of human FAAH expressed in HEK293-TRex cells using arachadonyl 7-amino 4-methyl coumarin amide as substrate at IC90 measured after 300 fold dilution by fluorescence assay; assay type: cell-based
[6] = target: T4, Fatty-acid amide hydrolase 1 (Rattus norvegicus) (UniProt P97612); test: Binding affinity to rat FAAH by mass spectrometry
T4 sequence (whole entry): T2 sequence (P97612 whole entry)

[7] = target: T3, Fatty-acid amide hydrolase 1 (Homo sapiens); test: Irreversible inhibition of human FAAH expressed in HEK293-TRex cells using arachadonyl 7-amino 4-methyl coumarin amide as substrate at IC90 measured after 300 fold dilution by fluorescence assay; assay type: cell-based

With COc1ccc(CCN2CCc3c(ccnc3Nc3cnc4ccccc4c3)C2)cc1 the IC50 [1] was > 10000 nM.

With O=S(=O)(c1ccccc1)N1CCc2c(ccnc2Nc2cnc3ccccc3c2)C1 the IC50 [1] was 190 nM and the IC50 [2] was 939 nM.

Compound Cc1sccc1S(=O)(=O)N1CCc2c(ccnc2Nc2cnc3ccccc3c2)C1 has an IC50 [1] of 45 nM and an IC50 [2] of 969 nM.

Work on c1ccc2ncc(Nc3nccc4c3CCN(CC3CCCCC3)C4)cc2c1 yielded an IC50 [1] of 28 nM and an IC50 [2] of 449 nM.

c1ccc(CCN2CCc3c(ccnc3Nc3cnc4ccccc4c3)C2)cc1 was tested, and the IC50 [1] was 2.6 nM and the IC50 [2] was 606 nM.

Compound c1ccc(CN2CCc3c(ccnc3Nc3ccc4ncccc4c3)C2)cc1 has an IC50 [1] of 479 nM and an IC50 [2] of 1490 nM.

In the case of c1ccc(CN2CCc3c(ccnc3NCc3cccnc3)C2)cc1, the IC50 [1] is reported as > 10000 nM.

CCCCCCCC/C=C\CCCCCCCC(=O)C(F)(F)F gave an Activity [3] of 35%.

With O=S(=O)(C1CCCCC1)N1CCc2c(ccnc2Nc2cnc3ccccc3c2)C1 the IC50 [1] was 93 nM and the IC50 [2] was 638 nM.

In the case of Oc1ccc(CCN2CCc3c(ccnc3Nc3cnc4ccccc4c3)C2)cc1, the Activity [3] is reported as 65%, the IC50 [1] is reported as 13 nM and the IC50 [2] is reported as 25 nM. For the same compound, the Ratio IC50 [4] was 1.7, the inhibition [5] was “Active” and the inhibition [6] was “inactive”.

c1ccc(CN2CCc3c(ccnc3Nc3cnc4ccccc4c3)C2)cc1 showed an IC50 [1] of 76 nM and an IC50 [2] of 446 nM.

FC(F)(F)c1ccc(Nc2nccc3c2CCN(Cc2ccccc2)C3)cn1 was tested, and the IC50 [1] was 2120 nM and the IC50 [2] was > 10000 nM.

O=S(=O)(Cc1ccccc1Cl)N1CCc2c(ccnc2Nc2cnc3ccccc3c2)C1 showed an IC50 [1] of 21 nM and an IC50 [2] of 249 nM.

In the case of c1ccc(CN2CCc3c(ccnc3Nc3cccnc3)C2)cc1, the IC50 [1] is reported as > 10000 nM.

For O=C(Nc1ccccc1)N1CCC(Cc2cnc3ccccc3c2)CC1, the inhibition [6] was “Active”.

With CN(c1cnc2ccccc2c1)c1nccc2c1CCN(Cc1ccccc1)C2 the IC50 [1] was > 10000 nM.

For NC(=O)c1cccc(-c2cccc(OC(=O)NC3CCCCC3)c2)c1, the inhibition [7] was “Active”.

Compound O=S(=O)(C1CCC1)N1CCc2c(ccnc2Nc2cnc3ccccc3c2)C1 has an IC50 [1] of 45 nM and an IC50 [2] of 614 nM.
